Test results published in patent US6995164B2, “Methods of treating tumors” (Rhode Island Hospital, priority 1999, dated 2006).
Entries after “also recorded” stand apart in the source; their conditions may differ.

How the values were obtained:
[1] = tested on: NIH-3T3; experiment: Western-blot analysis of PARP cleavage; type: cell-based, murine; conditions: 24 h exposure to 50 or 100 μM
Experimental: (§1) Two×10^6 cells were seeded in 150 cm^2 tissue culture flasks. […] After an additional twenty-four hours, cells were harvested, cell number determined, and aliquots derived from equal cell numbers generated from each exposure condition. Total proteins from these whole cell lysates were separated by SDS-PAGE and transferred to nitrocellulose filters. Filters were then immunoblotted to detect intact PARP protein and cleavage fragments by using the clone C-2-10 mouse monoclonal anti-PARP antibody (Zymed Laboratories, San Francisco, Calif.). The resulting protein-antibody complexes were visualized by chemiluminescence techniques.
(§2) Western-blot analysis was used to assess of PARP cleavage. Two×10^6 cells were seeded into separate 75 cm^2 tissue culture flasks containing 20 ml of tissue culture media plus serum. […] Twenty-four hours after the addition of Taurolidine, cells were harvested, cell number determined, and aliquots containing an equal cell number were generated from each exposure condition. Total proteins from whole cell lysates generated from these aliquots were separated by SDS-PAGE and electrotransferred to nitrocellulose filters. Filters were then processed to detect intact PARP protein and cleavage fragments by using the clone C-2-10 mouse monoclonal anti-PARP antibody (Zymed Laboratories, San Francisco, Calif.). […]

[2] = tested on: tumor cells; experiment: Apoptosis of tumor cells in culture; type: cell-based
[3] = tested on: SKOV-3 human ovarian tumor xenografts; experiment: Therapeutic effectiveness against i.p. human ovarian tumor xenografts; type: in vivo, female nude mice
From the text: Fourteen days following the final Taurolidine injection, mice in all groups were sacrificed and the peritoneal cavity examined for the presence of tumors. Each experimental was repeated three times and the pooled number of animals in each group ranged from 15–21.
Fourteen days following the final Taurolidine injection, mice in all groups were sacrificed, i.p. ovarian tumor xenografts removed and tumor weighed. Each experiment was repeated three times and the pooled number of animals in each group ranged from 15–21. Each bar represents the mean (±SE) tumor weight of 15–21 animals. ***p≦0.001, ****p≦0.0001.
(§3) Studies to assess in vivo toxicity and therapeutic effectiveness were carried out in 6–12 week old female homozygous athymic (Hsd:athymic nude nu/nu) mice obtained from Harlan (Indianapolis, Ind.).
To evaluate therapeutic effectiveness, mice received a single intraperitoneal injection of 5×10^6 SKOV-3 cells in a volume of 0.5 ml. Immediately thereafter, mice were randomly divided into treatment groups of 7 animals. […] Control animals received 1 ml injections of 5% Kollidon 17PF alone. Animals were examined daily and body weight recorded twice weekly. […] The mean tumor weight for each treatment group was calculated and statistical analysis of differences in the mean tumor weight between treatment groups employed the Student's t-test. p-values of ≦0.05 were considered significant.

[4] = tested on: PA-1; experiment: Cell cycle distribution and sub-G0/G1 DNA debris by flow cytometry (propidium iodide); type: cell-based, human
Experimental: (§4) Three×10^5 cells were seeded in plastic tissue culture flasks. […] Control cultures received an appropriate volume of Kollidine-17P. […] The percentage of DNA debris in the sub-G0/G1 region was assessed using cytofluorometric techniques.
(§5) For flow cytometry studies, 1×10^6 PA-1, SKOV-3, or NIH-3T3 cells were incubated for 24 h in appropriate media containing serum. […] Control cultures for each cell line were incubated in media containing 40 μl of 5% Kollidon 17PF alone. Forty-eight hours later, all cells were harvested by trypsinization and prepared for cytofluorometric analysis by standard methods. For example, harvested cells were resuspended in ice cold phosphate-buffered saline at a final cell density of 2×10^6 cells/ml. The cells then were stained for 30 min at room temperature in the dark with a solution of 0.05 mg/ml propidium iodide, 0.6% Igepal, and 1% sodium citrate. Flow cytometry was performed by FACScan (Becton Dickinson, Plymouth, England) using the ModFit LT program (Becton Dickinson). Statistical analysis was performed with the Kruskal Wallis non-parametric ANOVA test followed by Dunn's multiple comparisons test using Instat.
(§6) Three×10^5 cells were seeded in plastic tissue culture flasks. […] After an additional 48 h, cells were harvested, stained with propidium iodide, and cell cycle distribution assessed using cytofluorometric techniques. […]

[5] = tested on: SKOV-3; experiment: as above; type: cell-based, human; conditions: 48 h exposure
Experimental: as §4, with “techniques. Each bar represents the mean (±SE) of three determinations. **p≦0.01, ***p≦0.001, ****p≦0.0001” for “techniques.”
as §5, with “Statistical analysis was performed with the Kruskal Wallis non-parametric ANOVA test followed by Dunn's multiple comparisons test using Instat.” left out
as §6

[6] = tested on: SKOV-3; experiment: Western-blot analysis of PARP cleavage; type: cell-based, human; conditions: 24 h exposure to 50 or 100 μM
Experimental: as §1, §2

[7] = tested on: PA-1; experiment: Western-blot analysis of PARP cleavage; type: cell-based, human; conditions: 24 h exposure to 50 or 100 μM
Experimental: as §1, §2

[8] = tested on: human ovarian tumor cells; experiment: Growth of established tumor cell colonies in vitro; type: cell-based; conditions: 24-hour exposure to 50 μM
Experimental: (§7) Parallel studies were carried out to assess whether disruption of cell adhesion played a role in the cytotoxic activity.

[9] = tested on: normal murine bone marrow cultures; experiment: Cytotoxic and apoptotic activity in normal primary cells; type: cell-based
From the text: This observation was confirmed using normal (non-tumor) primary cells derived from animals, which are known to be free of tumors.

[10] = tested on: 3T3 cells; experiment: Cell cycle kinetics and DNA fragmentation after 24-hour exposure; type: cell-based
From the text: (§8) This DNA fragmentation was not observed in normal 3T3 cells.

[11] = tested on: PA1 human ovarian cells; experiment: as above; type: cell-based
From the text: as §8

[12] = tested on: panel of human and murine neoplastic cell lines; experiment: Cell growth inhibition across the cell line panel; type: cell-based; conditions: 72 h, 3 d exposure; panel of human and murine tumor cell lines; read-out: IC50s, range over all cell lines evaluated
Experimental: Included in the tumor cell line panel were ovarian tumor cells (PA-1 and SKOV-3), colon tumor cells (HCT-8, HCT-15 and HT-29), lung tumor cells (H-157, A-549 and H-596), prostate tumor cells (DU-145), glioma cells (U-251), and melanoma (MNT-1). The murine melanoma B16F10 cell line was also tested. These cell lines readily available, e.g., from the American Type Culture Collection (ATCC). Cells were cultured in appropriate growth medium at 37° C. in a humidified incubator in an atmosphere of 5% CO2. Under these growth conditions, the doubling time of all cell lines was 20–28 h.
One ml of this cell suspension was added to each well of a 12 well cell culture plate that contained 3 ml of appropriate media plus serum. […] Control wells received 40 μl of 5% Kollidon 17PF alone. Seventy-two hours later, all cells were harvested by trypsinization and cell number determined electronically using a Coulter Model Z1 particle counter (Coulter Corp., Miami, Fla.) to assess cell growth inhibition. Each experiment was performed in duplicate and repeated a minimum of three times.
Cells were seeded at a density of 1–5×10^4 cells in each well of a 6 well tissue culture flask. […] After three days, cells were harvested by trypsinization and cell number determined electronically. Cell growth inhibition was determined by comparison to non-Taurolidine exposed control cultures. […]

[13] = tested on: aerobic and anaerobic bacterial strains; conditions: depending on the bacterial strain evaluated; cited from earlier work
[14] = Taurolidine-induced toxicity, 3 consecutive daily i.p. bolus injections; type: in vivo
Experimental: as §3
Control animals received 1 ml injections of 5% Kollidon 17PF alone. Animals were examined daily and body weight recorded twice weekly. A reduction in body weight of greater than 10% was considered significant. The maximally tolerated dose (MTD) was considered to be the dose which produced ˜10% mortality.
During the injection regimen, and daily thereafter for 30 d, mice were weighed and examined. Experiments were repeated a minimum of three times and mortality and weight loss data pooled.

[15] = tested on: TNF; interleukins 1, 6, and 10; VEGF; TGF; experiment: Angiogenesis factors in patients with metastatic colon cancer; type: in vivo, human; conditions: taurolidine-treated subjects compared to placebo
Experimental: Patients with metastatic colon cancer were treated with taurolidine and several factors controlling angiogenesis were measured.

[16] = tested on: NIH-3T3; experiment: Cell cycle distribution and sub-G0/G1 DNA debris by flow cytometry (propidium iodide); type: cell-based, murine; conditions: 48 h exposure
Experimental: as §4, with “techniques. Each bar represents the mean (±SE) of three determinations. **p≦0.01, ***p≦0.001, ****p≦0.0001” for “techniques.”
as §5, with “Statistical analysis was performed with the Kruskal Wallis non-parametric ANOVA test followed by Dunn's multiple comparisons test using Instat.” left out
as §6

[17] = tested on: HL-60 human promyelocytic cell line; experiment: Apoptosis induction in non-adherent cancer cell model; type: cell-based
[18] = tested on: glioblastoma multiforma; experiment: Clinical use, intravenous infusion in advanced recurrent glioblastoma multiforma; type: in vivo, human; conditions: 20 g i.v. over 6 hours twice a week, at least one 5 week regimen
Experimental: Four patients, which were diagnosed with advanced recurrent glioblastoma multiforma, were treated with taurolidine. The prognosis for this group of patients was determined to be approximately 8 weeks of survival.

[19] = tested on: MDR-transfected glioblastoma cells; experiment: Cytotoxicity to drug resistant tumor cells
From the text: Glioblastoma cells were transfected with a gene encoding multiple drug resistance (MDR).

[20] = Clinical tolerability (i.p. lavage in recurrent ovarian tumors, systemic in glioblastoma); type: in vivo, human; conditions: i.p. lavage after surgery (ovarian) or systemic (glioblastoma)
Experimental: Taurolidine was administered by i.p. lavage immediately following surgery for removal of recurrent ovarian tumors. For patients with glioblastoma, Taurolidine was administered systemically.

[21] = tested on: human cancer cell lines; experiment: In vitro cytotoxic activity survey of human cancer cell lines; type: cell-based
Experimental: as §7

O=S1(=O)CCN(CN2CCS(=O)(=O)NC2)CN1 [Taurolidine, Bis-(1,1-dioxoperhydro-1,2,4-thiadiazinyl-4)methane]
PARP cleavage [1]: little evidence of this proteolytic event
PARP cleavage ([1]; listed as taurolidine): PARP cleavage was not evident
incubation time after which apoptosis is induced [2]: one
tumor formation, ascites development and growth ([3]; 3 d 20 mg/mouse regimen initiated on the day of tumor cell injection): highly effective and inhibited tumor formation
tumor growth inhibition ([3]; single cycle initiated 5 d after tumor cell injection (established i.p. tumors)): capable of significantly inhibiting tumor growth
mean tumor size in treated mice versus controls ([3]; therapy delayed for up to 3 d after tumor cell injection): significantly smaller than in controls
effect on cell cycle distribution (in words) ([4]; 48 h exposure to up to 100 μM): little effect on cell cycle distribution
DNA debris in the sub-G0/G1 region ([4]; 48 h exposure, concentration-dependent): significantly increased DNA debris in the sub-G0/G1 region; also recorded: appearance of DNA debris in the sub-G0G1 region
effect on cell cycle distribution (in words) [5]: concentration-dependent decrease in the percentage of cells in G0/G1 but increased the percentage of cells in both the S-phase and G2/M
DNA debris in the sub-G0/G1 region ([5]; concentration-dependent): significantly increased DNA debris in the sub-G0/G1 region; also recorded: appearance of DNA debris in the sub-G0G1 region
PARP cleavage [6]: induced PARP cleavage; also recorded: resulted in PARP cleavage
PARP cleavage [7]: induced PARP cleavage; also recorded: resulted in PARP cleavage
cytotoxic effect against the growth of established tumor cells [8]: significant cytotoxic effect
concentration required to inhibit cell proliferation [9]: concentrations in the mM range were required to inhibit cell proliferation
cell cycle kinetics [10]: significantly reduced the percentage of cells in both the S- and G2/M-phases
DNA fragmentation ([10]; 50 μM, flow cytometry and agarose-gel electrophoresis): not observed; also recorded: not apparent
cell cycle kinetics ([11]; PA1): significantly reduced the percentage of cells in both the S- and G2/M-phases
DNA fragmentation ([11]; human ovarian tumor cells, 50 μM, flow cytometry and agarose-gel electrophoresis): induced a high degree of DNA fragmentation; also recorded: overt DNA fragmentation
IC50 [12]: 9.6 to 34.2 µM
minimum concentration required to inhibit bacterial cell growth (MIC) [13]: 10 to 1000 µg/mL
mortality (%) ([14]; 10 mg/mouse/inj i.p. on 3 consecutive days): 6%
mortality (%) ([14]; 20 mg/mouse/inj i.p. on 3 consecutive days): 13%
mortality (%) ([14]; 25 mg/mouse/inj i.p. on 3 consecutive days): 47%
mortality (%) ([14]; 30 mg/mouse/inj i.p. on 3 consecutive days): 100%
maximally tolerated dose (MTD) ([14]; mouse, in vivo, ip): 20 mg/mouse
factors controlling the growth of blood vessels (TNF; interleukins 1, 6, 10; VEGF; TGF) [15]: decreased
DNA debris in the sub-G0/G1 region [16]: did not increase DNA debris in sub-G0/G1 region; also recorded: did not significantly affect the appearance of DNA debris
effect on cell cycle distribution (in words) [16]: decreased the percentage of cells in G0/G1 and increased the percentage of cells in S in a concentration-dependent manner
exposure time that induces apoptosis ([17]; HL-60): ≤ 90 min
apoptosis pathway events ([17]; non-adherent cancer cell models): activation of caspases 3, 8 and 9
patients in whom the tumor mass decreased or stayed the same [18]: 3 out of the 4
cytotoxicity ([19]; MDR-transfected glioblastoma cells, 50 μM): Significant cytotoxicity
tolerability in patients [20]: well tolerated

O=S1(=O)CCNCN1 [taurultam]
induction of apoptotic death ([21]; cancer cells versus normal control cells): induced apoptotic death of cancer cells but not normal control cells
cytotoxic activity relative to taurolidine ([21]; same human cancer cell lines as for taurolidine): approximately 75%

COc1cccc2c1C(=O)c1c(O)c3c(c(O)c1C2=O)C[C@@](O)(C(=O)CO)C[C@@H]3O[C@H]1C[C@H](N)[C@H](O)[C@H](C)O1 [adriamycin]
resistance of transfected cells to standard chemotherapeutic agents ([19]; MDR-transfected versus untransfected glioblastoma cells): 100–1000 times
